Assay results taken from ChEMBL document CHEMBL3774354, “Discovery of Selective Histone Deacetylase 6 Inhibitors Using the Quinazoline as the Cap for the Treatment of Cancer” (J Med Chem, 2016).
Active and inactive are the calls of the source. No cut-off for these calls is given here.

Tests used:
[1] = Cytotoxicity against human SKBR3 cells after 72 hrs by MTT assay; type: functional, cell-based; conditions: SK-BR-3, 72 h
Histone deacetylase 4 = Histone deacetylase 4 (Homo sapiens, UniProt P56524); test: Inhibition of recombinant HDAC4 (unknown origin) using AMC labeled AC-peptide as substrate incubated for 1 hr by fluorescence analysis
Chain of Histone deacetylase 4 (P56524 whole entry): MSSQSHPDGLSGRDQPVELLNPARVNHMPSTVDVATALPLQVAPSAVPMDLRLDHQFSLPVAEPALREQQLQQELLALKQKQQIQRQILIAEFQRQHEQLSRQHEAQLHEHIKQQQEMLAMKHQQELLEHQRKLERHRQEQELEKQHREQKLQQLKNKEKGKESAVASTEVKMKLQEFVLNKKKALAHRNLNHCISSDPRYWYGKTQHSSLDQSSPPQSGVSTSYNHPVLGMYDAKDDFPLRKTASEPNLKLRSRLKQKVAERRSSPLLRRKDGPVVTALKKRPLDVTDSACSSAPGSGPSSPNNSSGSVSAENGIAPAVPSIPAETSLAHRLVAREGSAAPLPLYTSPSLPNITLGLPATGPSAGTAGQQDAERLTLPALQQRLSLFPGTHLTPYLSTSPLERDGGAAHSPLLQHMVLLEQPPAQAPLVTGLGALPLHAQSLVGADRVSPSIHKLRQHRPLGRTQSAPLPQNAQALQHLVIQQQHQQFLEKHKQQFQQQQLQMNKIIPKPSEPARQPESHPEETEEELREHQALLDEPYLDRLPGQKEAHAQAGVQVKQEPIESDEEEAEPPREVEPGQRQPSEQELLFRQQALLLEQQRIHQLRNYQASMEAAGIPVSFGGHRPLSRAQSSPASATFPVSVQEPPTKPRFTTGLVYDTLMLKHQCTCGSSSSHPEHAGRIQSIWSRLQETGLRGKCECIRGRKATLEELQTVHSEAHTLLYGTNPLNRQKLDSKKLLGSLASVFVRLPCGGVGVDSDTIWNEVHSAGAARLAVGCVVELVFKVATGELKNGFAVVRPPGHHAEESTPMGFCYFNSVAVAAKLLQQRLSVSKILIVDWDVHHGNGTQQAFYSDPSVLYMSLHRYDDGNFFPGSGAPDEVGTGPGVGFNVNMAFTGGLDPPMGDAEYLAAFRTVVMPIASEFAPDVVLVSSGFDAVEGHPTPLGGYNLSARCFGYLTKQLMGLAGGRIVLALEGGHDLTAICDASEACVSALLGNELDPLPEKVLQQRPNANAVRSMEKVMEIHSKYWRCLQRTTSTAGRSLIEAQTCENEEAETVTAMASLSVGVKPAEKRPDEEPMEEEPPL

Histone deacetylase 5 [2] = target: T1, Histone deacetylase 5 (Homo sapiens, UniProt Q9UQL6); test: Inhibition of recombinant HDAC5 (unknown origin) using AMC labeled AC-peptide as substrate at 10 uM incubated for 1 hr by fluorescence analysis
T1 sequence (Q9UQL6 whole entry): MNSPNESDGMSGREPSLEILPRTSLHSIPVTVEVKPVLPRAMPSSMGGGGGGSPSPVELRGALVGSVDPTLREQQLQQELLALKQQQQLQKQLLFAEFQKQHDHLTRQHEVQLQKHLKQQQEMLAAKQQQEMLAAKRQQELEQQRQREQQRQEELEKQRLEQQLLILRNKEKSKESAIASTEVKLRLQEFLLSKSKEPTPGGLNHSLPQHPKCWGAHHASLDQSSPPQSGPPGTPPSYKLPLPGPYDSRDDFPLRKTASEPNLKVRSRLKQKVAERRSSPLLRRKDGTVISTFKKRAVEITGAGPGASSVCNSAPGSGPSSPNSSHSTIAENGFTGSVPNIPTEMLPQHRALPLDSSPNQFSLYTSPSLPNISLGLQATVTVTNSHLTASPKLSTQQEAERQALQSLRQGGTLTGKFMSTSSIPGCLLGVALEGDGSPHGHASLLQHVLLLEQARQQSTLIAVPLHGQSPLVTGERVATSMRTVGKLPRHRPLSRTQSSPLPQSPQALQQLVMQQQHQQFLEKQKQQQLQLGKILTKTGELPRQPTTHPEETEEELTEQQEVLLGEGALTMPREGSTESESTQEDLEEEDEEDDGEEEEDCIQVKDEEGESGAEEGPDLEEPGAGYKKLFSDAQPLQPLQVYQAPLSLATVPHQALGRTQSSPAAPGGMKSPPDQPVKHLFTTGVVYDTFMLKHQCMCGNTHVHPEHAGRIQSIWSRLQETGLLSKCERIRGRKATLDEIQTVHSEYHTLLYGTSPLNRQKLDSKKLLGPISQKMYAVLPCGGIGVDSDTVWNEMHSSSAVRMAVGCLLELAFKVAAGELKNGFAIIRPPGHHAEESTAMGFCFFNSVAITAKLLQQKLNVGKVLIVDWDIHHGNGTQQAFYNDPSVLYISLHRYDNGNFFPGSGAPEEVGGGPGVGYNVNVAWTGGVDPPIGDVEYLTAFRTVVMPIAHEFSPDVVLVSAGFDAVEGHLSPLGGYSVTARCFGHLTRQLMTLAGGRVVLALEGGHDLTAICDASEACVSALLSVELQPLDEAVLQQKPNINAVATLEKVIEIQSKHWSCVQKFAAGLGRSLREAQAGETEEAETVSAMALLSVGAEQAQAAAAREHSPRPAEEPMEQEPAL

[3] = AUC (0 to infinity) in Sprague-Dawley rat at 12 mg/kg, iv administered by bolus injection measured up to 24 hrs by LC-MS/MS analysis; type: ADME, organism-based; set-up: dose 12 mg/kg, route intravenous, time infinity; conditions: in vivo
Mus musculus [4] = test: Toxicity in Balb/c nude mouse xenografted with human HCT116 cells assessed as death at 50 mg/kg, iv q2d for 9 days; type: organism-based, HCT-116; conditions: in vivo, 216 h
[5] = Cytotoxicity against human RPMI8226 cells after 72 hrs by MTT assay; type: functional, cell-based; conditions: RPMI-8226, 72 h
K562 = test: Cytotoxicity against human K562 cells after 72 hrs by MTT assay; type: functional, cell-based; conditions: K562, 72 h
Rattus norvegicus = test: Volume of distribution at steady state in Sprague-Dawley rat at 12 mg/kg, po measured up to 24 hrs by LC-MS/MS analysis; type: ADME, organism-based; conditions: in vivo
Histone deacetylase 9 [6] = target: T2, Histone deacetylase 9 (Homo sapiens, UniProt Q9UKV0); test: Inhibition of recombinant HDAC9 (unknown origin) using AMC labeled AC-peptide as substrate at 10 uM incubated for 1 hr by fluorescence analysis
T2 sequence (Q9UKV0 whole entry): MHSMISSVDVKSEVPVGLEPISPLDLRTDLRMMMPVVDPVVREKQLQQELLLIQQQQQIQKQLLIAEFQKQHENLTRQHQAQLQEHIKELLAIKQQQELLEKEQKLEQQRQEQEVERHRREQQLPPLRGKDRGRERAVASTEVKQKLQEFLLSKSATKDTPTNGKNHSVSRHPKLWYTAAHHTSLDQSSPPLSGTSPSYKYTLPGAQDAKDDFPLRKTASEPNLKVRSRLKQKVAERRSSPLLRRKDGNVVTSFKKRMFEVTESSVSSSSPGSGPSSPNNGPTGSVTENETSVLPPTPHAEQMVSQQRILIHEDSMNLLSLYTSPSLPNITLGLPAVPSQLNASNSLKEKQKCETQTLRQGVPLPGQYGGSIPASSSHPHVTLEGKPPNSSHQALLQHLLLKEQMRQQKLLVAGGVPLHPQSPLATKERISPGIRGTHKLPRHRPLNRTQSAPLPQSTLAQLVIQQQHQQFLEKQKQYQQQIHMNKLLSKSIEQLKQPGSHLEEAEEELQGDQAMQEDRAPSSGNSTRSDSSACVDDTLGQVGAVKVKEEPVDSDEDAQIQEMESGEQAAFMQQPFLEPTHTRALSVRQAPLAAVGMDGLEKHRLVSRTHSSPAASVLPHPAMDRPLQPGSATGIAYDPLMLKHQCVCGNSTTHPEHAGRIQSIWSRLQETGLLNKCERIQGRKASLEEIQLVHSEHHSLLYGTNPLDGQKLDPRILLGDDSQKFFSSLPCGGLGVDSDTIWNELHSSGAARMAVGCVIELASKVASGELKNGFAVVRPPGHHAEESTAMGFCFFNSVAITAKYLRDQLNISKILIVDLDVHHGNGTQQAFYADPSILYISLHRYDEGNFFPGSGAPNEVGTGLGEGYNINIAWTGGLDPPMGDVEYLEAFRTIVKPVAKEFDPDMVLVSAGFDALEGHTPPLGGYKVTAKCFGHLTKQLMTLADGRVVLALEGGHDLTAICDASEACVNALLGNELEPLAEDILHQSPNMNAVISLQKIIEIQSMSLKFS

Histone deacetylase 7 = Histone deacetylase 7 (Homo sapiens, UniProt Q8WUI4)
Chain of Histone deacetylase 7 (Q8WUI4 whole entry): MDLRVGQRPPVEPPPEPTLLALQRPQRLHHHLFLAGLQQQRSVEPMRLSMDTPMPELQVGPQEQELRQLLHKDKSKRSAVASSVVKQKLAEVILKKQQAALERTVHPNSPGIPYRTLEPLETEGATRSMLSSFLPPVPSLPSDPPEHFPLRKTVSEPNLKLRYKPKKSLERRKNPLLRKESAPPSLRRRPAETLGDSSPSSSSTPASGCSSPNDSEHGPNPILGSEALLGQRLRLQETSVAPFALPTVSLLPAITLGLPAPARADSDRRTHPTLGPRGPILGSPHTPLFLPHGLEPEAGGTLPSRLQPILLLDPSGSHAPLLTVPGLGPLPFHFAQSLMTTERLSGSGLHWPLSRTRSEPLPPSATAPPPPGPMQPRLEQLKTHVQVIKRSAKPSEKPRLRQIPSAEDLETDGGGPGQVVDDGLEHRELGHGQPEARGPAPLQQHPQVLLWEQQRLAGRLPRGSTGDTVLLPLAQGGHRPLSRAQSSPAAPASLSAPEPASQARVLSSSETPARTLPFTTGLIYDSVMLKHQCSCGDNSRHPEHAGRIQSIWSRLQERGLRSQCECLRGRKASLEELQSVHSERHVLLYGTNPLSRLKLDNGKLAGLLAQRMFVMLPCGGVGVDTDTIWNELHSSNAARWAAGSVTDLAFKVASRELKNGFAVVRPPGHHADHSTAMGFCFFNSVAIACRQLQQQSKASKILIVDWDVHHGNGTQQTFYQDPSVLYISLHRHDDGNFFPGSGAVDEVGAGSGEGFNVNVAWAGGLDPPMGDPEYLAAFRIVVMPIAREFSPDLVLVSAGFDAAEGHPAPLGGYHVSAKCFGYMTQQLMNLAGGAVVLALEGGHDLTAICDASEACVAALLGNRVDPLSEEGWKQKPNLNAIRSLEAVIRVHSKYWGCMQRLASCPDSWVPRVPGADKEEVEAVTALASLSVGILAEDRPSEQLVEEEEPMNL
Description: Inhibition of recombinant HDAC7 (unknown origin) using AMC labeled AC-peptide as substrate incubated for 1 hr by fluorescence analysis

[7] = target: T3, Protein deacetylase HDAC6 (Homo sapiens) (UniProt Q9UBN7); test: Inhibition of HDAC6 in human MV4-11 cells assessed as upregulation of alpha- tubulin acetylation after 6 hrs by Western blot analysis; type: cell-based
T3 sequence (whole entry): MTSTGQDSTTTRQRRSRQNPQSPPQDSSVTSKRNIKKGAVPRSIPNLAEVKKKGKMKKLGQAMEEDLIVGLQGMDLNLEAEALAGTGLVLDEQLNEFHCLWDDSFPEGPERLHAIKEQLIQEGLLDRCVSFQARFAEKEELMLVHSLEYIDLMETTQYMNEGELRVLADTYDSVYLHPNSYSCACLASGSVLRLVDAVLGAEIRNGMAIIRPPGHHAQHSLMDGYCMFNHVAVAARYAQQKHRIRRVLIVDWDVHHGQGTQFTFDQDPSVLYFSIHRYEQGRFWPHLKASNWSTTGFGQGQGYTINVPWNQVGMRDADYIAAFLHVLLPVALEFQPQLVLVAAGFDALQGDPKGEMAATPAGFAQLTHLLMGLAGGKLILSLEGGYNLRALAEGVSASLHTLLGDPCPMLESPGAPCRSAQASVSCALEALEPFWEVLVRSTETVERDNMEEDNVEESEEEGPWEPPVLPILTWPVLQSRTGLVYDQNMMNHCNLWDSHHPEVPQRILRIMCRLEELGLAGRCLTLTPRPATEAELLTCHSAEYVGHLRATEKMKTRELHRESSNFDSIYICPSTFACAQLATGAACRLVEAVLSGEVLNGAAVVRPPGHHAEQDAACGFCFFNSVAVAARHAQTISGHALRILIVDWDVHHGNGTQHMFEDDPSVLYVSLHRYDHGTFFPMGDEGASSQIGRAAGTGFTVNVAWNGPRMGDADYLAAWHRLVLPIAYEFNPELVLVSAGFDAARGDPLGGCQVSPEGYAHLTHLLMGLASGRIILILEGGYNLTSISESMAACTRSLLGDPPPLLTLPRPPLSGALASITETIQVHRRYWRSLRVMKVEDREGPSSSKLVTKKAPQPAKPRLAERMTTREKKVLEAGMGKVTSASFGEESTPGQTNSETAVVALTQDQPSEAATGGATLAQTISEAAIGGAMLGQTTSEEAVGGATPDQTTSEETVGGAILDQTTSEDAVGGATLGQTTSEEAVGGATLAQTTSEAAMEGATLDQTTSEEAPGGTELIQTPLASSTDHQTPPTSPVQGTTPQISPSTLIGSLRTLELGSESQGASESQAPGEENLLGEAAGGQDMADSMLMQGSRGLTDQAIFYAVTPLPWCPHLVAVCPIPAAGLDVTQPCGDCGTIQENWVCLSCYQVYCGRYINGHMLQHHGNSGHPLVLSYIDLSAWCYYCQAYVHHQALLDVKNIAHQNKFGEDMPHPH

Ramos [8] = test: Cytotoxicity against human Ramos cells after 72 hrs by MTT assay; type: functional, cell-based
[9] = Cytotoxicity against human HCT116 cells after 72 hrs by MTT assay; type: functional, cell-based; conditions: HCT-116, 72 h
Mus musculus [10] = test: Toxicity in NOD/SCID mouse xenografted with human MV4-11 cells assessed as death at 50 mg/kg, iv q2d for 12 days; type: organism-based; conditions: in vivo, 288 h
[11] = Antitumor activity against human HCT116 cells xenografted in Balb/c nude mouse assessed as tumor mass change at 50 mg/kg, iv q2d for 9 days; type: functional, HCT-116
A549 = test: Cytotoxicity against human A549 cells after 72 hrs by MTT assay; type: functional, cell-based; conditions: A549, 72 h
MV4-11 = test: Cytotoxicity against human MV4-11 cells after 72 hrs by MTT assay; type: functional, cell-based; conditions: MV4-11, 72 h
[12] = Cmax in Sprague-Dawley rat at 12 mg/kg, po measured up to 24 hrs by LC-MS/MS analysis; type: ADME, organism-based; set-up: dose 12 mg/kg, route oral; conditions: in vivo
Mus musculus [13] = test: Toxicity in NOD/SCID mouse xenografted with human MV4-11 cells assessed as change in body weight at 50 mg/kg, iv q2d for 12 days; type: organism-based; conditions: in vivo, 288 h
Histone deacetylase 5 [14] = target: T1, Histone deacetylase 5
Description: Inhibition of recombinant HDAC5 (unknown origin) using AMC labeled AC-peptide as substrate incubated for 1 hr by fluorescence analysis

Ramos [15] = test: Antitumor activity against human Ramos cells xenografted in NOD/SCID mouse assessed as tumor mass change at 80 mg/kg, po q2d for 6 days; type: functional
Mus musculus [16] = test: Toxicity in NOD/SCID mouse xenografted with human Ramos cells assessed as death at 40 mg/kg, po q2d for 6 days; type: organism-based; conditions: in vivo, 144 h
[17] = target: T3, Protein deacetylase HDAC6 (Homo sapiens); test: Inhibition of HDAC6 in human HCT116 cells assessed as upregulation of alpha- tubulin acetylation after 6 hrs by Western blot analysis; type: cell-based; conditions: HCT-116
Mus musculus [18] = test: Toxicity in Balb/c nude mouse xenografted with human HCT116 cells assessed as death at 25 mg/kg, po q2d for 8 days; type: organism-based, HCT-116; conditions: in vivo, 192 h
Histone deacetylase 9 [19] = target: T2, Histone deacetylase 9
Description: Inhibition of recombinant HDAC9 (unknown origin) using AMC labeled AC-peptide as substrate incubated for 1 hr by fluorescence analysis

A2780 = test: Cytotoxicity against human A2780 cells after 72 hrs by MTT assay; type: functional, cell-based; conditions: A2780, 72 h
[20] = target: Histone deacetylase 7 (Homo sapiens) (UniProt Q8WUI4); test: Inhibition of recombinant HDAC7 (unknown origin) using AMC labeled AC-peptide as substrate at 10 uM incubated for 1 hr by fluorescence analysis
Chain of Histone deacetylase 7 (Homo sapiens) (Q8WUI4 whole entry): as the sequence (Q8WUI4 whole entry) above

Q: For COc1ccc(N(C)c2nc(C)nc3ccccc23)cc1OCCCC(=O)NO, which IC50 [1] is on record?
A: 22 nM

Q: And the IC50 (Histone deacetylase 4)?
A: > 10000 nM

Q: What about the inhibition (Histone deacetylase 5 [2]) of the same compound?
A: inactive

Q: What about the AUC(0-inf) [3] of the same compound?
A: 2430 ng·h/mL

Q: And the Activity (Mus musculus [4])?
A: Non-toxic

Q: What about the IC50 [5] of the same compound?
A: 15 nM

Q: And the IC50 (K562)?
A: 63 nM

Q: What about the Vdss (Rattus norvegicus) of the same compound?
A: 154.811 L/kg

Q: What about the inhibition (Histone deacetylase 9 [6]) of the same compound?
A: inactive

Q: What about the IC50 (Histone deacetylase 7) of the same compound?
A: > 10000 nM

Q: What about the inhibition [7] of the same compound?
A: Dose-dependent effect

Q: And the IC50 (Ramos [8])?
A: 71 nM

Q: And the IC50 [9]?
A: 35 nM

Q: What about the Activity (Mus musculus [10]) of the same compound?
A: Non-toxic

Q: What about the Activity [11] of the same compound?
A: 76.3%

Q: And the IC50 (A549)?
A: 104 nM

Q: And the IC50 (MV4-11)?
A: 60 nM

Q: And the Cmax [12]?
A: 238 ng/mL

Q: And the Activity (Mus musculus [13])?
A: -3.8%

Q: What about the IC50 (Histone deacetylase 5 [14]) of the same compound?
A: > 10000 nM

Q: And the Activity (Ramos [15])?
A: 58.79%

Q: What about the Activity (Mus musculus [16]) of the same compound?
A: Non-toxic

Q: What about the inhibition [17] of the same compound?
A: Dose-dependent effect

Q: And the Activity (Mus musculus [18])?
A: Non-toxic

Q: And the IC50 (Histone deacetylase 9 [19])?
A: > 10000 nM

Q: And the IC50 (A2780)?
A: 46 nM

Q: And the inhibition [20]?
A: inactive
